Experimental data: PMC10033419, “Blocking NS3–NS4B interaction inhibits dengue virus in non-human primates” (Nature, 2023)
Converted amounts (≈) assume the structure as drawn. Like-named read-outs stand apart in the source and are kept apart here.

Tested on: DENV-2 RL
Assay: microbe, parasite or virus in culture
Type: cell-based
Details: Dengue virus, DENV2, Vero

COc1cc(N[C@H](C(=O)c2c[nH]c3ccc(OC(F)(F)F)cc23)c2ccc(Cl)cc2OC)cc(S(C)(=O)=O)c1 [JNJ-1802]
EC50 (read-out: EC50 values [Well 1], A sample, passage 32): 100 ng/mL (≈ 172 nM)
EC50 (read-out: EC50 values [Well 1], A sample, passage 33): 200 ng/mL (≈ 343 nM)
EC50 (read-out: EC50 values [Well 1], A sample, passage 34): 200 ng/mL (≈ 343 nM)
EC50 (read-out: EC50 values [Well 1], A sample, passage 35): 200 ng/mL (≈ 343 nM)
EC50 (read-out: EC50 values [Well 1], A sample, passage 36): 200 ng/mL (≈ 343 nM)
EC50 (read-out: EC50 values [Well 1], A sample, passage 37): 400 ng/mL (≈ 686 nM)
EC50 (read-out: EC50 values [Well 1], A sample, passage 38): 400 ng/mL (≈ 686 nM)
EC50 (read-out: EC50 values [Well 1], A sample, passage 39): 1000 ng/mL (≈ 1720 nM)
EC50 (read-out: EC50 values [Well 1], A sample, passage 40): 1000 ng/mL (≈ 1720 nM)
EC50 (read-out: EC50 values [Well 1], A sample, passage 41): 1000 ng/mL (≈ 1720 nM)
EC50 (read-out: EC50 values [Well 1], A sample, passage 42 (END)): 1000 ng/mL (≈ 1720 nM)
EC50 (read-out: EC50 values [Well 1], B sample, passage 1): 0.049 ng/mL (≈ 0.0841 nM)
EC50 (read-out: EC50 values [Well 1], B sample, passage 2): 0.049 ng/mL (≈ 0.0841 nM)
EC50 (read-out: EC50 values [Well 1], B sample, passage 3): 0.049 ng/mL (≈ 0.0841 nM)
EC50 (read-out: EC50 values [Well 1], B sample, passage 4): 0.049 ng/mL (≈ 0.0841 nM)
EC50 (read-out: EC50 values [Well 1], B sample, passage 5): 0.049 ng/mL (≈ 0.0841 nM)
EC50 (read-out: EC50 values [Well 1], B sample, passage 11): 0.195 ng/mL (≈ 0.334 nM)
EC50 (read-out: EC50 values [Well 1], B sample, passage 12): 0.195 ng/mL (≈ 0.334 nM)
EC50 (read-out: EC50 values [Well 1], B sample, passage 13): 0.391 ng/mL (≈ 0.671 nM)
EC50 (read-out: EC50 values [Well 1], B sample, passage 16): 0.195 ng/mL (≈ 0.334 nM)
EC50 (read-out: EC50 values [Well 1], B sample, passage 17): 0.195 ng/mL (≈ 0.334 nM)
EC50 (read-out: EC50 values [Well 1], B sample, passage 18): 0.195 ng/mL (≈ 0.335 nM)
EC50 (read-out: EC50 values [Well 1], B sample, passage 19): 0.391 ng/mL (≈ 0.67 nM)
EC50 (read-out: EC50 values [Well 1], B sample, passage 20): 0.391 ng/mL (≈ 0.67 nM)
EC50 (read-out: EC50 values [Well 1], B sample, passage 21): 0.391 ng/mL (≈ 0.67 nM)
EC50 (read-out: EC50 values [Well 1], B sample, passage 22): 0.391 ng/mL (≈ 0.67 nM)
EC50 (read-out: EC50 values [Well 1], B sample, passage 24): 1.56 ng/mL (≈ 2.68 nM)
EC50 (read-out: EC50 values [Well 1], B sample, passage 25): 3.13 ng/mL (≈ 5.37 nM)
EC50 (read-out: EC50 values [Well 1], B sample, passage 26): 6.25 ng/mL (≈ 10.7 nM)
EC50 (read-out: EC50 values [Well 1], B sample, passage 27): 6.25 ng/mL (≈ 10.7 nM)
EC50 (read-out: EC50 values [Well 1], B sample, passage 28): 6.25 ng/mL (≈ 10.7 nM)
EC50 (read-out: EC50 values [Well 1], B sample, passage 29): 25 ng/mL (≈ 42.9 nM)
EC50 (read-out: EC50 values [Well 1], B sample, passage 30): 25 ng/mL (≈ 42.9 nM)
EC50 (read-out: EC50 values [Well 1], B sample, passage 31): 31.3 ng/mL (≈ 53.7 nM)
EC50 (read-out: EC50 values [Well 1], B sample, passage 32): 31.3 ng/mL (≈ 53.7 nM)
EC50 (read-out: EC50 values [Well 1], B sample, passage 33): 62.5 ng/mL (≈ 107 nM)
EC50 (read-out: EC50 values [Well 1], B sample, passage 34): 62.5 ng/mL (≈ 107 nM)
EC50 (read-out: EC50 values [Well 1], B sample, passage 35): 62.5 ng/mL (≈ 107 nM)
EC50 (read-out: EC50 values [Well 1], B sample, passage 36): 62.5 ng/mL (≈ 107 nM)
EC50 (read-out: EC50 values [Well 1], B sample, passage 37): 62.5 ng/mL (≈ 107 nM)
EC50 (read-out: EC50 values [Well 1], B sample, passage 38): 62.5 ng/mL (≈ 107 nM)
EC50 (read-out: EC50 values [Well 1], B sample, passage 39): 125 ng/mL (≈ 214 nM)
EC50 (read-out: EC50 values [Well 1], B sample, passage 40): 250 ng/mL (≈ 429 nM)
EC50 (read-out: EC50 values [Well 1], B sample, passage 41): 500 ng/mL (≈ 858 nM)
EC50 (read-out: EC50 values [Well 1], B sample, passage 42): 500 ng/mL (≈ 858 nM)
EC50 (read-out: EC50 values [Well 1], B sample, passage 43): 500 ng/mL (≈ 858 nM)
EC50 (read-out: EC50 values [Well 1], B sample, passage 44): 500 ng/mL (≈ 858 nM)
EC50 (read-out: EC50 values [Well 1], B sample, passage 45): 500 ng/mL (≈ 858 nM)
EC50 (read-out: EC50 values [Well 1], B sample, passage 46): 500 ng/mL (≈ 858 nM)
EC50 (read-out: EC50 values [Well 1], B sample, passage 47): 500 ng/mL (≈ 858 nM)
EC50 (read-out: EC50 values [Well 1], B sample, passage 48): 1000 ng/mL (≈ 1720 nM)
EC50 (read-out: EC50 values [Well 1], B sample, passage 49): 1000 ng/mL (≈ 1720 nM)
EC50 (read-out: EC50 values [Well 1], B sample, passage 50 (END)): 1000 ng/mL (≈ 1720 nM)
EC50 (read-out: EC50 values [Well 2], A sample, passage 1): 0.024 ng/mL (≈ 0.0412 nM)
EC50 (read-out: EC50 values [Well 2], A sample, passage 2): 0.024 ng/mL (≈ 0.0412 nM)
EC50 (read-out: EC50 values [Well 2], A sample, passage 3): 0.024 ng/mL (≈ 0.0412 nM)
EC50 (read-out: EC50 values [Well 2], A sample, passage 4): 0.024 ng/mL (≈ 0.0412 nM)
EC50 (read-out: EC50 values [Well 2], A sample, passage 5): 0.024 ng/mL (≈ 0.0412 nM)
EC50 (read-out: EC50 values [Well 2], A sample, passage 6): 0.049 ng/mL (≈ 0.0841 nM)
EC50 (read-out: EC50 values [Well 2], A sample, passage 7): 0.024 ng/mL (≈ 0.0412 nM)
EC50 (read-out: EC50 values [Well 2], A sample, passage 8): 0.024 ng/mL (≈ 0.0412 nM)
EC50 (read-out: EC50 values [Well 2], A sample, passage 9): 0.049 ng/mL (≈ 0.0841 nM)
EC50 (read-out: EC50 values [Well 2], A sample, passage 13): 0.195 ng/mL (≈ 0.334 nM)
EC50 (read-out: EC50 values [Well 2], A sample, passage 14): 0.391 ng/mL (≈ 0.671 nM)
EC50 (read-out: EC50 values [Well 2], A sample, passage 15): 0.391 ng/mL (≈ 0.671 nM)
EC50 (read-out: EC50 values [Well 2], A sample, passage 17): 1.56 ng/mL (≈ 2.68 nM)
